Test results reported in the kinase profiling compilation of Christmann-Franck et al. (2016).

How the values were obtained:
Experiment in all cases: radiometric filter-binding kinase assay
JAK2 JH1 JH2 (human) = JAK2 JH1 JH2 (human) (UniProt O60674)
SRC (human) = SRC (human) (UniProt P12931)
[1] = biological target: STK11 CAB39 STRADA (human) (UniProt Q9Y376+Q7RTN6+Q15831)
INSR (human) = INSR (human) (UniProt P06213)
CSNK1D (human) = CSNK1D (human) (UniProt P48730)
IRAK4 (human) = IRAK4 (human) (UniProt Q9NWZ3)
MAPK14 (human) = MAPK14 (human) (UniProt Q16539)
MAPK15 (human) = MAPK15 (human) (UniProt Q8TD08)
MELK (human) = MELK (human) (UniProt Q14680)
IGF1R (human) = IGF1R (human) (UniProt P08069)
TAOK1 (human) = TAOK1 (human) (UniProt Q7L7X3)
FGFR1 (human) = FGFR1 (human) (UniProt P11362)
RPS6KA3 KD1 KD2 (human) = RPS6KA3 KD1 KD2 (human) (UniProt P51812)
BRSK1 (human) = BRSK1 (human) (UniProt Q8TDC3)
NTRK1 (human) = NTRK1 (human) (UniProt P04629)
CAMKK2 (human) = CAMKK2 (human) (UniProt Q96RR4)
MARK1 (human) = MARK1 (human) (UniProt Q9P0L2)
LCK (mouse) = details: accession and sequence are those of the human protein
RIPK2 (human) = RIPK2 (human) (UniProt O43353)
MAP3K1 (human) = MAP3K1 (human) (UniProt Q13233)
FLT1 (human) = FLT1 (human) (UniProt P17948)
MINK1 (human) = MINK1 (human) (UniProt Q8N4C8)
CLK2 (human) = CLK2 (human) (UniProt P49760)
[2] = tested on: AKT2 (human), P31751 [S474D]
EPHA2 (human) = EPHA2 (human) (UniProt P29317)
GSK3B (human) = GSK3B (human) (UniProt P49841)
CSK (human) = CSK (human) (UniProt P41240)
MAPKAPK5 (human) = MAPKAPK5 (human) (UniProt Q8IW41)
PRKCZ (human) = PRKCZ (human) (UniProt Q05513)
MAPK11 (human) = MAPK11 (human) (UniProt Q15759)
HIPK1 (human) = HIPK1 (human) (UniProt Q86Z02)
HIPK3 (human) = HIPK3 (human) (UniProt Q9H422)
ROCK2 (rat) = details: accession and sequence are those of the human protein
DYRK3 (human) = DYRK3 (human) (UniProt O43781)
MAP3K7 TAB1 (human) = MAP3K7 TAB1 (human) (UniProt Q15750+O43318)
MAP3K7 TAB1 (human), sequence (O43318 whole entry, looked up): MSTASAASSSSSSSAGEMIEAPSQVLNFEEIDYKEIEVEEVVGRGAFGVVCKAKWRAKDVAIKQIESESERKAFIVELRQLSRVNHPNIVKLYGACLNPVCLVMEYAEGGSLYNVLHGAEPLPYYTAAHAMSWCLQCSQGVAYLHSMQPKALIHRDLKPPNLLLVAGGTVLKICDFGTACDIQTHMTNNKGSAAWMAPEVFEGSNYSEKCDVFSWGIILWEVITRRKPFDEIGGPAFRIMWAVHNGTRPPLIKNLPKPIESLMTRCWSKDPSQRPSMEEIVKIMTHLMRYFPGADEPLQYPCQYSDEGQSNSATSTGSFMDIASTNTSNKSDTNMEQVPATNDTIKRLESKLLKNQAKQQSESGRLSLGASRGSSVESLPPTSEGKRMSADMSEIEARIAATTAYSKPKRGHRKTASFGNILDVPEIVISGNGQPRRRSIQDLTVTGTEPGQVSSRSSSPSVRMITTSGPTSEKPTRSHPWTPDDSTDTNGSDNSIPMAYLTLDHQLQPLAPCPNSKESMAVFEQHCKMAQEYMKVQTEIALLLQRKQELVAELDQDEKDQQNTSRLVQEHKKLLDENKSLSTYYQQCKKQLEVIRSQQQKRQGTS
MAP3K7 TAB1 (human), sequence (Q15750 whole entry, looked up): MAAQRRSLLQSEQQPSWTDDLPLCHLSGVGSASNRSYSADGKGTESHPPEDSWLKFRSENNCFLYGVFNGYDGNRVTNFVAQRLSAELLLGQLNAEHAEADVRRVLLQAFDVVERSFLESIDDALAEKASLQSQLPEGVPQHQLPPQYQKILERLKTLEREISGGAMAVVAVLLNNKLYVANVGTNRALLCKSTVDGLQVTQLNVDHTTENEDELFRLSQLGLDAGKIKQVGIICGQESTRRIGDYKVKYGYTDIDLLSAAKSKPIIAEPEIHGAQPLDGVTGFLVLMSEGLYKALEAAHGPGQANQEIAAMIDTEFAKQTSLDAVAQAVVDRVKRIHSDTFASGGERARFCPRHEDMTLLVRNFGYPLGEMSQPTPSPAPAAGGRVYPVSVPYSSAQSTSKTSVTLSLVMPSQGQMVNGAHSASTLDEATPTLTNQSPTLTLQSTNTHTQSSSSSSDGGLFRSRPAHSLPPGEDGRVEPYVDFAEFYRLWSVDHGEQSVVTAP

MELK (human), sequence (Q14680 whole entry, looked up): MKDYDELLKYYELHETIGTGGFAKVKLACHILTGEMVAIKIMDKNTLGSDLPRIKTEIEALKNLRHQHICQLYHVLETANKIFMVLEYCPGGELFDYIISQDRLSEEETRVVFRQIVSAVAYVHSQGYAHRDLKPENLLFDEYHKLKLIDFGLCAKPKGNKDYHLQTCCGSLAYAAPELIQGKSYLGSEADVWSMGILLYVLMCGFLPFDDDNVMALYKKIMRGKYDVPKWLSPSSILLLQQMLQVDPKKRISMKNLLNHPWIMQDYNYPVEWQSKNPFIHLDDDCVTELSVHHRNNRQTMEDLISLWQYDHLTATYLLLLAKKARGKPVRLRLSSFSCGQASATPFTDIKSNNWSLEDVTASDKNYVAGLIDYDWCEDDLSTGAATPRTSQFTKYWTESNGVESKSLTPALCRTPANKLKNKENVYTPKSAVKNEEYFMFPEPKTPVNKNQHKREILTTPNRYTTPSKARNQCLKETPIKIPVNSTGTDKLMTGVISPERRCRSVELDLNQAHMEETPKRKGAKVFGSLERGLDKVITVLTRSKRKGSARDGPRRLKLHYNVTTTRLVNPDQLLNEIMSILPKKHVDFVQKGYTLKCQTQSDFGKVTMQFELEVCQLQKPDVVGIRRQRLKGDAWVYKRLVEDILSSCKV
CAMKK2 (human), sequence (Q96RR4 whole entry, looked up): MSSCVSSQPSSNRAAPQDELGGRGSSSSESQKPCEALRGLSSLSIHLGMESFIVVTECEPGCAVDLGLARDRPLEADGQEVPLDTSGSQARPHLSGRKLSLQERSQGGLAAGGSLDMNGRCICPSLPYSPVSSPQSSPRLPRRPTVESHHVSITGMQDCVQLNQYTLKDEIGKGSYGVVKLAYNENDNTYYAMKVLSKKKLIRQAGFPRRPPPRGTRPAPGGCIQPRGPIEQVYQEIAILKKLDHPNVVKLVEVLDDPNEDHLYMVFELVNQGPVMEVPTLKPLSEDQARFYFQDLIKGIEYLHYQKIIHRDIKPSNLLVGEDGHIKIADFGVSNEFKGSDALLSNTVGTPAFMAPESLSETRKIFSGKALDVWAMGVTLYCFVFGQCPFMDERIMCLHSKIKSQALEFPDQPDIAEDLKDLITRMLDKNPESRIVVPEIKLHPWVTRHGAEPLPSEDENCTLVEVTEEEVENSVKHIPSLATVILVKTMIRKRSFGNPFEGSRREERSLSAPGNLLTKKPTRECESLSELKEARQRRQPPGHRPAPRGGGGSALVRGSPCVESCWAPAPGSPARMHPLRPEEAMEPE
CSNK1D (human), sequence (P48730 whole entry, looked up): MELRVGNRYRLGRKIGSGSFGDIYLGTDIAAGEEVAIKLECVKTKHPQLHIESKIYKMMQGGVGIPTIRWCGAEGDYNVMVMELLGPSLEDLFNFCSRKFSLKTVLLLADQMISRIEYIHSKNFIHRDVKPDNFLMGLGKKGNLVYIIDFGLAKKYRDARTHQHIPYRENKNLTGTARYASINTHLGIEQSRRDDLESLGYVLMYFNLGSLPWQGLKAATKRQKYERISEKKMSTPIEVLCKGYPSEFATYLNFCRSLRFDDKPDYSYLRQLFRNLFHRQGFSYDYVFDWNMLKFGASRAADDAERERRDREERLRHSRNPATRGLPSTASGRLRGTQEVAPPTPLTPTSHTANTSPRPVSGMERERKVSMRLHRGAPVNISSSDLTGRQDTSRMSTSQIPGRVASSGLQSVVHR
FGFR1 (human), sequence (P11362 whole entry, looked up): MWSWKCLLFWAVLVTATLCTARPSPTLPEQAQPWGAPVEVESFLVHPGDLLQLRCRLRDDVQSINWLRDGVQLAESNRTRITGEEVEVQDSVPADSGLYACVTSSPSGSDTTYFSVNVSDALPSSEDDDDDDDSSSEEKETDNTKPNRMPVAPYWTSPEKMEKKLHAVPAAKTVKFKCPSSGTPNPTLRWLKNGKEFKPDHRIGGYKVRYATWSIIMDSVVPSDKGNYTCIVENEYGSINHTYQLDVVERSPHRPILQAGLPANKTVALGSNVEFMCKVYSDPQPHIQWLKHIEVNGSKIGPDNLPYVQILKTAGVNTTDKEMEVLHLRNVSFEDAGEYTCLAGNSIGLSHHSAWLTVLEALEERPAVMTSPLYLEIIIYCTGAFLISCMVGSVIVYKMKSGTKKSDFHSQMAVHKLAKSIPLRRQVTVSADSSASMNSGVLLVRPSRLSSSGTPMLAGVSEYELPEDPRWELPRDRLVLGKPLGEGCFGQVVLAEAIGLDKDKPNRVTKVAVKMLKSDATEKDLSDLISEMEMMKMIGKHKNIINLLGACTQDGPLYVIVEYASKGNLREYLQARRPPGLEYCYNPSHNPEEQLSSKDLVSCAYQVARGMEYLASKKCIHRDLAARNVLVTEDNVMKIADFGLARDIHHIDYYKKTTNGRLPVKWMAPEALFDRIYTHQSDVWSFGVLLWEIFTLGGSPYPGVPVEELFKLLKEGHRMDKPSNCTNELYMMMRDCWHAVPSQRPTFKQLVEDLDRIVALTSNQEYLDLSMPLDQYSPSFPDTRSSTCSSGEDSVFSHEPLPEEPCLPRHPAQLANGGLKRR
NTRK1 (human), sequence (P04629 whole entry, looked up): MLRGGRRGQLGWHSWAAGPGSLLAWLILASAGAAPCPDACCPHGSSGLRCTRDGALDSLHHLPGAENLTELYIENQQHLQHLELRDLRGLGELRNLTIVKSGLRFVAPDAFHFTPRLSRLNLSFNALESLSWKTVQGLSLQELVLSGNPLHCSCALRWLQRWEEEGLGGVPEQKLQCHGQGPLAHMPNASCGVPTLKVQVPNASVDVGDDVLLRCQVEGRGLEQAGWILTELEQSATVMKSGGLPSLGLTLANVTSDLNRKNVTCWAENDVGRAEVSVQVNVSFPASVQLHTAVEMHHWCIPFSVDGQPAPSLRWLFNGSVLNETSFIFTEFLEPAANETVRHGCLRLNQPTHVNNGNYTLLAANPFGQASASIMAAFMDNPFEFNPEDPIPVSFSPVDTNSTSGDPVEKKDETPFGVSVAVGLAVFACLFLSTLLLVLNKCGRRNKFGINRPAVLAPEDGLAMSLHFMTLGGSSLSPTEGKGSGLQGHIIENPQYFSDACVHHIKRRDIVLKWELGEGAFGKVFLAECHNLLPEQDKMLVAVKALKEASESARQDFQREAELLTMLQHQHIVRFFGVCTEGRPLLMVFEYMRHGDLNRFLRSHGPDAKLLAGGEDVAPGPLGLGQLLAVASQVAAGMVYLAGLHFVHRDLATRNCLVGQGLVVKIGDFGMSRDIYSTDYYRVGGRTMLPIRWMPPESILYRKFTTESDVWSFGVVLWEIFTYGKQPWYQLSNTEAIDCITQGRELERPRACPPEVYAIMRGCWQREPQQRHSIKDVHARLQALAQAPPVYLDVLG
MAPK11 (human), sequence (Q15759 whole entry, looked up): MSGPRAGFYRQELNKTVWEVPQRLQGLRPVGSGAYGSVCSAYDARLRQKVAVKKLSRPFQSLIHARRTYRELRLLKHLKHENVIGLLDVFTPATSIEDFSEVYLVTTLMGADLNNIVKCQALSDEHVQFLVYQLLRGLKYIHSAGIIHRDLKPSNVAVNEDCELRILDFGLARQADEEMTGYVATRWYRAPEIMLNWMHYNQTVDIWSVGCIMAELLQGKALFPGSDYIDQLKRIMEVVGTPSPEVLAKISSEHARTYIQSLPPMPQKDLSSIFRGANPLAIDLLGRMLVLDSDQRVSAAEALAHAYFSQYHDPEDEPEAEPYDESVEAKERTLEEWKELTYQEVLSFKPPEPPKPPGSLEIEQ

SMILES: Cc1ccc(Sc2cnc(Nc3cccc(Br)n3)s2)cc1C(=O)N1CCN(C(=O)CN)CC1
- residual activity (JAK2 JH1 JH2 (human); compound 0.1 µM): 84%
- residual activity (JAK2 JH1 JH2 (human); compound 1.0 µM): 80%
- residual activity (JAK2 JH1 JH2 (human); compound 10.0 µM): 30%
- residual activity (SRC (human); compound 0.1 µM): 22%
- residual activity (SRC (human); compound 1.0 µM): 20%
- residual activity (SRC (human); compound 10.0 µM): 2%
- residual activity ([1]; compound 0.1 µM): 64%
- residual activity ([1]; compound 1.0 µM): 62%
- residual activity ([1]; compound 10.0 µM): 8%
- residual activity (INSR (human); compound 0.1 µM): 19%
- residual activity (INSR (human); compound 1.0 µM): 14%
- residual activity (INSR (human); compound 10.0 µM): 1%
- residual activity (CSNK1D (human); compound 0.1 µM): 99%
- residual activity (CSNK1D (human); compound 1.0 µM): 87%
- residual activity (CSNK1D (human); compound 10.0 µM): 68%
- residual activity (IRAK4 (human); compound 0.1 µM): 5%
- residual activity (IRAK4 (human); compound 1.0 µM): 3%
- residual activity (IRAK4 (human); compound 10.0 µM): 2%
- residual activity (MAPK14 (human); compound 0.1 µM): 101%
- residual activity (MAPK14 (human); compound 1.0 µM): 89%
- residual activity (MAPK14 (human); compound 10.0 µM): 47%
- residual activity (MAPK15 (human); compound 0.1 µM): 1%
- residual activity (MAPK15 (human); compound 1.0 µM): 1%
- residual activity (MAPK15 (human); compound 10.0 µM): 1%
- residual activity (MELK (human); compound 0.1 µM): 42%
- residual activity (MELK (human); compound 1.0 µM): 15%
- residual activity (MELK (human); compound 10.0 µM): 5%
- residual activity (IGF1R (human); compound 0.1 µM): 2%
- residual activity (IGF1R (human); compound 1.0 µM): 2%
- residual activity (IGF1R (human); compound 10.0 µM): 2%
- residual activity (TAOK1 (human); compound 0.1 µM): 42%
- residual activity (TAOK1 (human); compound 1.0 µM): 33%
- residual activity (FGFR1 (human); compound 0.1 µM): 47%
- residual activity (FGFR1 (human); compound 1.0 µM): 43%
- residual activity (FGFR1 (human); compound 10.0 µM): 11%
- residual activity (RPS6KA3 KD1 KD2 (human); compound 0.1 µM): 67%
- residual activity (RPS6KA3 KD1 KD2 (human); compound 1.0 µM): 64%
- residual activity (RPS6KA3 KD1 KD2 (human); compound 10.0 µM): 18%
- residual activity (BRSK1 (human); compound 0.1 µM): 82%
- residual activity (BRSK1 (human); compound 1.0 µM): 81%
- residual activity (BRSK1 (human); compound 10.0 µM): 41%
- residual activity (NTRK1 (human); compound 0.1 µM): 14%
- residual activity (NTRK1 (human); compound 1.0 µM): 19%
- residual activity (NTRK1 (human); compound 10.0 µM): 4%
- residual activity (CAMKK2 (human); compound 0.1 µM): 22%
- residual activity (CAMKK2 (human); compound 1.0 µM): 19%
- residual activity (CAMKK2 (human); compound 10.0 µM): 19%
- residual activity (MARK1 (human); compound 0.1 µM): 70%
- residual activity (MARK1 (human); compound 1.0 µM): 78%
- residual activity (MARK1 (human); compound 10.0 µM): 58%
- residual activity (LCK (mouse); compound 0.1 µM): 43%
- residual activity (LCK (mouse); compound 1.0 µM): 13%
- residual activity (LCK (mouse); compound 10.0 µM): 5%
- residual activity (RIPK2 (human); compound 0.1 µM): 20%
- residual activity (RIPK2 (human); compound 1.0 µM): 17%
- residual activity (RIPK2 (human); compound 10.0 µM): 8%
- residual activity (MAP3K1 (human); compound 0.1 µM): 46%
- residual activity (MAP3K1 (human); compound 1.0 µM): 35%
- residual activity (MAP3K1 (human); compound 10.0 µM): 5%
- residual activity (FLT1 (human); compound 0.1 µM): 56%
- residual activity (FLT1 (human); compound 1.0 µM): 52%
- residual activity (FLT1 (human); compound 10.0 µM): 19%
- residual activity (MINK1 (human); compound 0.1 µM): 69%
- residual activity (MINK1 (human); compound 1.0 µM): 64%
- residual activity (MINK1 (human); compound 10.0 µM): 8%
- residual activity (CLK2 (human); compound 0.1 µM): 3%
- residual activity (CLK2 (human); compound 1.0 µM): 3%
- residual activity (CLK2 (human); compound 10.0 µM): 1%
- residual activity ([2]; compound 0.1 µM): 80%
- residual activity ([2]; compound 1.0 µM): 94%
- residual activity ([2]; compound 10.0 µM): 46%
- residual activity (EPHA2 (human); compound 0.1 µM): 46%
- residual activity (EPHA2 (human); compound 1.0 µM): 36%
- residual activity (EPHA2 (human); compound 10.0 µM): 13%
- residual activity (GSK3B (human); compound 0.1 µM): 46%
- residual activity (GSK3B (human); compound 1.0 µM): 41%
- residual activity (GSK3B (human); compound 10.0 µM): 37%
- residual activity (CSK (human); compound 0.1 µM): 103%
- residual activity (CSK (human); compound 1.0 µM): 88%
- residual activity (CSK (human); compound 10.0 µM): 9%
- residual activity (MAPKAPK5 (human); compound 0.1 µM): 96%
- residual activity (MAPKAPK5 (human); compound 1.0 µM): 94%
- residual activity (MAPKAPK5 (human); compound 10.0 µM): 96%
- residual activity (PRKCZ (human); compound 0.1 µM): 104%
- residual activity (PRKCZ (human); compound 1.0 µM): 98%
- residual activity (PRKCZ (human); compound 10.0 µM): 58%
- residual activity (MAPK11 (human); compound 0.1 µM): 87%
- residual activity (MAPK11 (human); compound 1.0 µM): 76%
- residual activity (MAPK11 (human); compound 10.0 µM): 48%
- residual activity (HIPK1 (human); compound 0.1 µM): 45%
- residual activity (HIPK1 (human); compound 1.0 µM): 42%
- residual activity (HIPK1 (human); compound 10.0 µM): 5%
- residual activity (HIPK3 (human); compound 0.1 µM): 30%
- residual activity (HIPK3 (human); compound 1.0 µM): 31%
- residual activity (HIPK3 (human); compound 10.0 µM): 17%
- residual activity (ROCK2 (rat); compound 0.1 µM): 90%
- residual activity (ROCK2 (rat); compound 1.0 µM): 82%
- residual activity (ROCK2 (rat); compound 10.0 µM): 63%
- residual activity (DYRK3 (human); compound 0.1 µM): 89%
- residual activity (DYRK3 (human); compound 1.0 µM): 78%
- residual activity (DYRK3 (human); compound 10.0 µM): 43%
- residual activity (MAP3K7 TAB1 (human); compound 0.1 µM): 107%
- residual activity (MAP3K7 TAB1 (human); compound 1.0 µM): 84%
- residual activity (MAP3K7 TAB1 (human); compound 10.0 µM): 27%
